In ChEMBL document CHEMBL5463728, “Data for DCP probe BAY-6096” (2023):
Values belong to the molecule of their own block, whether it stands above or below them.

Assays:
[1] = target: 5-hydroxytryptamine receptor 1B (Homo sapiens) (UniProt P28222); settings: Compound concentration 10.0 uM
[2] = target: T1, 5-hydroxytryptamine receptor 2C (Homo sapiens) (UniProt P28335); settings: Compound concentration 10.0 uM
T1 sequence (whole entry): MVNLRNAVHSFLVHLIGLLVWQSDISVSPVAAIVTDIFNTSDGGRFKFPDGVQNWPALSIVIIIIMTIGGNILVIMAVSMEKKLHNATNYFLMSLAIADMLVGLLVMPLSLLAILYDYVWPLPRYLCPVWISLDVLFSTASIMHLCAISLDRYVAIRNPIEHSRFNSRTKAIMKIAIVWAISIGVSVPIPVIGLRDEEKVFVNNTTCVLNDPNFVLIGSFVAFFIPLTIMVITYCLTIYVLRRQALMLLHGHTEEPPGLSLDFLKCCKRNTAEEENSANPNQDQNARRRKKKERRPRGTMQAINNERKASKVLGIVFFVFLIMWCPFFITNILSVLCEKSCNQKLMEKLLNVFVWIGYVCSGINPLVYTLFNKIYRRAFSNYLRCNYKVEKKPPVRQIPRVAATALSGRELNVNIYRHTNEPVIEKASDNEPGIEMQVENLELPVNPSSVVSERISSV

[3] = target: Sodium-dependent dopamine transporter (Homo sapiens) (UniProt Q01959); settings: Compound concentration 10.0 uM
Chain of Sodium-dependent dopamine transporter (Homo sapiens) (Q01959 whole entry): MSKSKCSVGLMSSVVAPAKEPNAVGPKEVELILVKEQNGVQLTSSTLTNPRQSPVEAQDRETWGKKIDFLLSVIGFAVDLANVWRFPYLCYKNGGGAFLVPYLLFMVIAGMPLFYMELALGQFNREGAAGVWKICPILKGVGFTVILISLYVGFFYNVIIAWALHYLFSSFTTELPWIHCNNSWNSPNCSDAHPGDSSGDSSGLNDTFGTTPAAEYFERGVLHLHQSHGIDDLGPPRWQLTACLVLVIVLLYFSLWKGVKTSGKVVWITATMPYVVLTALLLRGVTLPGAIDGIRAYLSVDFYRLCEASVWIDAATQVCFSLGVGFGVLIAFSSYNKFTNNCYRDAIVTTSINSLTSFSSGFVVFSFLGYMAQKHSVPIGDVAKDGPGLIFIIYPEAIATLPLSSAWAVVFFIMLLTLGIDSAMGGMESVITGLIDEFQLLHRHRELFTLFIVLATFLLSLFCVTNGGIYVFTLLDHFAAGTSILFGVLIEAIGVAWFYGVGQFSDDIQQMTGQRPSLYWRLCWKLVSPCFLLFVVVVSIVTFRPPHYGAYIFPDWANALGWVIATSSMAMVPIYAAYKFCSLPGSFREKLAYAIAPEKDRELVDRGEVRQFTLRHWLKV

[4] = target: Mu-type opioid receptor (Homo sapiens) (UniProt P35372); settings: Compound concentration 10.0 uM
Chain of Mu-type opioid receptor (Homo sapiens) (P35372 whole entry): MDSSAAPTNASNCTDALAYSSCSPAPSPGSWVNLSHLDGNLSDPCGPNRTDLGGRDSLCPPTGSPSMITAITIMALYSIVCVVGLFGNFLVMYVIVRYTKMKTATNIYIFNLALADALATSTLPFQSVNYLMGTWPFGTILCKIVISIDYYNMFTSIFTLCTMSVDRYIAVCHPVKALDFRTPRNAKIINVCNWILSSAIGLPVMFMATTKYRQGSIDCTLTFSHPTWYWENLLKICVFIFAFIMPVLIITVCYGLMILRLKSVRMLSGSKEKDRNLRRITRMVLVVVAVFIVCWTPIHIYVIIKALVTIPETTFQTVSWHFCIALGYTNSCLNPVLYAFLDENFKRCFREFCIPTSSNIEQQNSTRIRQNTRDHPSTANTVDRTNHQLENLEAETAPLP

[5] = target: Histamine H2 receptor (Homo sapiens) (UniProt P25021); settings: Compound concentration 10.0 uM
Chain of Histamine H2 receptor (Homo sapiens) (P25021 whole entry): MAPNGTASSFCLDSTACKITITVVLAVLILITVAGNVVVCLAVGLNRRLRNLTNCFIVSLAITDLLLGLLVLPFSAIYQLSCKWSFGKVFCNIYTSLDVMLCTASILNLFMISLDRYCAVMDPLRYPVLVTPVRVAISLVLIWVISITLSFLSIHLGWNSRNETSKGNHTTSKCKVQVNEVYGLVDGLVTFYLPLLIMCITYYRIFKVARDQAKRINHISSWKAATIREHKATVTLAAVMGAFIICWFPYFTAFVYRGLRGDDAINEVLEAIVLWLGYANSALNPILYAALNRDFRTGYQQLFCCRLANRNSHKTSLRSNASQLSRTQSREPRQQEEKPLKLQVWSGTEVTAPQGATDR

[6] = target: Alpha-2B adrenergic receptor (Homo sapiens) (UniProt P18089); settings: filed as antagonist, Compound concentration 10.0 uM
Chain of Alpha-2B adrenergic receptor (Homo sapiens) (P18089 whole entry): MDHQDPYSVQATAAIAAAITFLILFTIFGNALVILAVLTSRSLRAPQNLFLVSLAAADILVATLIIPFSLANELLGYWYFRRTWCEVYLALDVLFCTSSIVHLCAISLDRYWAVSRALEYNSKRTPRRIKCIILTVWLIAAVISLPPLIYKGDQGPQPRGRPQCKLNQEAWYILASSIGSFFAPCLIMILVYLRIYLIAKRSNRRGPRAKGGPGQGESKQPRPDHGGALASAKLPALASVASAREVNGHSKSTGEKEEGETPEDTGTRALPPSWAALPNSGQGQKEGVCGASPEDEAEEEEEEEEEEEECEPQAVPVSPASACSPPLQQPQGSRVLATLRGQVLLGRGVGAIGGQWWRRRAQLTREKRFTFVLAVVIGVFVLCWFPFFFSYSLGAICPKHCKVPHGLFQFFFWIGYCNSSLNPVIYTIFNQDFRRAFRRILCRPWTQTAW

[7] = target: Alpha-2C adrenergic receptor (Homo sapiens) (UniProt P18825); settings: Compound concentration 10.0 uM
Chain of Alpha-2C adrenergic receptor (Homo sapiens) (P18825 whole entry): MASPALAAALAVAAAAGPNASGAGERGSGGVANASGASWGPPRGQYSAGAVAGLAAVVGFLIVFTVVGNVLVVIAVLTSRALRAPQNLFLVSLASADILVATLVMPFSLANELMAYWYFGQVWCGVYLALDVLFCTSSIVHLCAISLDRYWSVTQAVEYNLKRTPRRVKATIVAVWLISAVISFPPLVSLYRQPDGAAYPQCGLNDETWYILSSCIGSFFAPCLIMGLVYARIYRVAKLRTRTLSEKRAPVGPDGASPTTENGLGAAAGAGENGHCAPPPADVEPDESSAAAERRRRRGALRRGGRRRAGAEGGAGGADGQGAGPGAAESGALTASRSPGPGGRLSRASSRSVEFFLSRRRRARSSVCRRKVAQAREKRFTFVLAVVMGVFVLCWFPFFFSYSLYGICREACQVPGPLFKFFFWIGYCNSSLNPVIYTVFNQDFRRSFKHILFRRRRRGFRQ

[8] = target: Muscarinic acetylcholine receptor M1 (Homo sapiens) (UniProt P11229); settings: Compound concentration 10.0 uM
Chain of Muscarinic acetylcholine receptor M1 (Homo sapiens) (P11229 whole entry): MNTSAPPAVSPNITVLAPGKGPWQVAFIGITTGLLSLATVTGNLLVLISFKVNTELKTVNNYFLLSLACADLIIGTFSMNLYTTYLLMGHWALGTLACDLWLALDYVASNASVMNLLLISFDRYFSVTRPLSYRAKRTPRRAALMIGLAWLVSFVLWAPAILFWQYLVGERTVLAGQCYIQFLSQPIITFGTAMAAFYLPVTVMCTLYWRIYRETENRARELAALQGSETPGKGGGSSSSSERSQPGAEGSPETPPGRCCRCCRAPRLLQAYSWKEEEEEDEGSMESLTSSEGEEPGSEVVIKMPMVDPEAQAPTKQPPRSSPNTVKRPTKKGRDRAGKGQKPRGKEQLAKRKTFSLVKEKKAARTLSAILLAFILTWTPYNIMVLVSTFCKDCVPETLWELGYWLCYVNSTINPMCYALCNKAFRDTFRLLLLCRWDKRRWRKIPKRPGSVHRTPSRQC

[9] = target: T2, Muscarinic acetylcholine receptor M4 (Homo sapiens) (UniProt P08173); settings: Compound concentration 10.0 uM
T2 sequence (whole entry): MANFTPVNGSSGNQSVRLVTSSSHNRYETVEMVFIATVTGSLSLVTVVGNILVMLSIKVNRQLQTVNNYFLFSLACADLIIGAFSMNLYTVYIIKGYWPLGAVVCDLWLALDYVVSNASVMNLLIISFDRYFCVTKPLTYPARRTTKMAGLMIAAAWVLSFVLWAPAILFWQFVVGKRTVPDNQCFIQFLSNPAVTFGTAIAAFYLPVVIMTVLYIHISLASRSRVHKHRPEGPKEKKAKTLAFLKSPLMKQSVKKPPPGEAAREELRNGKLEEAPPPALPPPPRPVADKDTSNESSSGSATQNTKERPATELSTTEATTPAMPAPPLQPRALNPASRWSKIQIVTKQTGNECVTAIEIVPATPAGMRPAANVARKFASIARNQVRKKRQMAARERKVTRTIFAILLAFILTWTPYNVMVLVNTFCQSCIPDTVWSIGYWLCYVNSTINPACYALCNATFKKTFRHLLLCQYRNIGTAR

[10] = target: Alpha-1D adrenergic receptor (Homo sapiens) (UniProt P25100); settings: Compound concentration 10.0 uM
Chain of Alpha-1D adrenergic receptor (Homo sapiens) (P25100 whole entry): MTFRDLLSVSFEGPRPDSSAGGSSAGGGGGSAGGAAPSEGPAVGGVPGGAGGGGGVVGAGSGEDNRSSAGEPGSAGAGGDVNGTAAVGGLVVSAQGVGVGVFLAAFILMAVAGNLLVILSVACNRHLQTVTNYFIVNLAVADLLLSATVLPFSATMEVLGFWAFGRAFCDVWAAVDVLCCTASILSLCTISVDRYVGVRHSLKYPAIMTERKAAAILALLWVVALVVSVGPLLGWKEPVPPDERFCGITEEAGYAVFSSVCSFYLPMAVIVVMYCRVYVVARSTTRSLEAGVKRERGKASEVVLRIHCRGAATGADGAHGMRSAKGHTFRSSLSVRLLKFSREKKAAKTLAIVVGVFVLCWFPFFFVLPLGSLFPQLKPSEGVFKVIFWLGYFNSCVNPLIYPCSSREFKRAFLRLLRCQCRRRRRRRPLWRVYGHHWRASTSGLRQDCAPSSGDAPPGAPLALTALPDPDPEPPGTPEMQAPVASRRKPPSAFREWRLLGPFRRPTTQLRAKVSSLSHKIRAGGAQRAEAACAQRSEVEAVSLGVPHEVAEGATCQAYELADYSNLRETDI

[11] = species: Homo sapiens; experiment: Inhibition of Nicotinic Acetylcholine at compound concentration of 10.0 uM in the Eurofins-Panlabs radioligand binding assay (Eurofins_assay_258590); format: protein-complex assay; settings: Compound concentration 10.0 uM
[12] = target: Carbonic anhydrase 2 (Homo sapiens) (UniProt P00918); experiment: Inhibition of Carbonic Anhydrase II at compound concentration of 10.0 uM in the Eurofins-Panlabs enzyme assay (Eurofins_assay_112020); design: substrate with concentration; settings: Compound concentration 10.0 uM
[13] = target: Prostaglandin G/H synthase 1 (Homo sapiens) (UniProt P23219); experiment: Inhibition of Cyclooxygenase COX-1 at compound concentration of 10.0 uM in the Eurofins-Panlabs enzyme assay (Eurofins_assay_116020); settings: Compound concentration 10.0 uM
[14] = target: Monoamine oxidase A (MAO-A) (Homo sapiens, UniProt P21397); experiment: Inhibition of Monoamine Oxidase MAO-A at compound concentration of 10.0 uM in the Eurofins-Panlabs enzyme assay (Eurofins_assay_140010); design: substrate with concentration 50 uM Kynuramine, incubation time 60 min, incubation temperature 37 C; settings: recombinant human MAO-A expressed in insect Hi5 cells, probe Kynuramine (50 uM), compound concentration 10 uM
[15] = target: Monoamine oxidase B (MAO-B) (Homo sapiens, UniProt P27338); experiment: Inhibition of Monoamine Oxidase MAO-B at compound concentration of 10.0 uM in the Eurofins-Panlabs enzyme assay (Eurofins_assay_140120); design: substrate with concentration 50 uM Kynuramine, incubation time 60 min, incubation temperature 37 C; settings: recombinant human MAO-B expressed in insect Hi5 cells, probe Kynuramine (50 uM), compound concentration 10 uM
[16] = target: 3',5'-cyclic-AMP phosphodiesterase 4D (Homo sapiens) (UniProt Q08499); experiment: Inhibition of Phosphodiesterase PDE4D2 at 10 µM in the Eurofins-Panlabs enzyme assay (Eurofins_assay_154420); design: substrate with concentration; settings: Compound concentration 10.0 uM
[17] = target: Alpha-1D adrenergic receptor (Homo sapiens, UniProt P25100); experiment: Adrenoceptor reporter cell assay (ADRA1D); format: functional
Chain of Alpha-1D adrenergic receptor (P25100 whole entry): as above

[18] = target: Beta-2 adrenergic receptor (Homo sapiens, UniProt P07550); experiment: Adrenoceptor reporter cell assay (ADRB2); format: functional
[19] = target: Adenosine receptor A1 (Homo sapiens) (UniProt P30542); settings: Compound concentration 10.0 uM
Chain of Adenosine receptor A1 (Homo sapiens) (P30542 whole entry): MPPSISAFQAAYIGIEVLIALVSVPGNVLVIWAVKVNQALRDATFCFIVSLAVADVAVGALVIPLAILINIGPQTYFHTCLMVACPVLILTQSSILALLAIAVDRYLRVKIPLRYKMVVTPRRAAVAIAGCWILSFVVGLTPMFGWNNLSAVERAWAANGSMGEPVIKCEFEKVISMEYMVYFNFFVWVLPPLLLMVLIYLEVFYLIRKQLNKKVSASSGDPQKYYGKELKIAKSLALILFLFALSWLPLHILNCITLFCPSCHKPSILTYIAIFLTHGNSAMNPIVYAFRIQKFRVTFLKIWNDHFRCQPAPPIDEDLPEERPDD

[20] = target: Adenosine receptor A3 (Homo sapiens) (UniProt P0DMS8); settings: Compound concentration 10.0 uM
Chain of Adenosine receptor A3 (Homo sapiens) (P0DMS8 whole entry): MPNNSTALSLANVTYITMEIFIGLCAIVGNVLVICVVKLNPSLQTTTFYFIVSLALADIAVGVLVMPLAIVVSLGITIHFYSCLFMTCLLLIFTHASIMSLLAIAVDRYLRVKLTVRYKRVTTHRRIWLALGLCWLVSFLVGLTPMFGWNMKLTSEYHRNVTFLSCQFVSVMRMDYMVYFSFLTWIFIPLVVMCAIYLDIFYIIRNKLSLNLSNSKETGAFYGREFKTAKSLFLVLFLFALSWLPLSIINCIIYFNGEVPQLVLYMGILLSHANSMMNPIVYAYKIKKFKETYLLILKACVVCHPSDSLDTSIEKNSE

[21] = target: Histamine H1 receptor (Homo sapiens) (UniProt P35367); settings: Compound concentration 10.0 uM
[22] = target: Histamine H3 receptor (Homo sapiens) (UniProt Q9Y5N1); settings: Compound concentration 10.0 uM
[23] = target: Muscarinic acetylcholine receptor M1 (Homo sapiens) (UniProt P11229); settings: Compound concentration 10.0 uM; remark: listed apart in the source
[24] = target: 5-hydroxytryptamine receptor 2B (Homo sapiens) (UniProt P41595); settings: Compound concentration 10.0 uM
[25] = species: Rattus norvegicus; settings: Compound concentration 10.0 uM
[26] = target: Sodium-dependent noradrenaline transporter (Homo sapiens) (UniProt P23975); settings: Compound concentration 10.0 uM
[27] = target: D(2) dopamine receptor (Homo sapiens, UniProt P14416); settings: Compound concentration 10.0 uM
[28] = target: Type-1 angiotensin II receptor (Homo sapiens) (UniProt P30556); settings: Compound concentration 10.0 uM
Chain of Type-1 angiotensin II receptor (Homo sapiens) (P30556 whole entry): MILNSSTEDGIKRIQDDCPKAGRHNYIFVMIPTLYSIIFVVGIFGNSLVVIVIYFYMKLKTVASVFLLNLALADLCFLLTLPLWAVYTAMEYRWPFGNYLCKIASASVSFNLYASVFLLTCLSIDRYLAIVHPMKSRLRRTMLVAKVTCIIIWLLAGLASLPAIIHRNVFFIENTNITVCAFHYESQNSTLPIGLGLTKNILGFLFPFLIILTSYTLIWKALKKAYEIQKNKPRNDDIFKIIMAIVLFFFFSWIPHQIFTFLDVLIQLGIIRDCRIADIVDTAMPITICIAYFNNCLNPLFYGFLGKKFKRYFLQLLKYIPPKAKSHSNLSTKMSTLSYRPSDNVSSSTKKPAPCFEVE

[29] = target: Glutamate receptor ionotropic, kainate (Rattus norvegicus) (UniProt P22756+Q01812+P42260+P42264+Q63273); settings: Compound concentration 10.0 uM
[30] = target: Progesterone receptor (Homo sapiens) (UniProt P06401); settings: Compound concentration 10.0 uM

Chain of 5-hydroxytryptamine receptor 1B (Homo sapiens) (P28222 whole entry): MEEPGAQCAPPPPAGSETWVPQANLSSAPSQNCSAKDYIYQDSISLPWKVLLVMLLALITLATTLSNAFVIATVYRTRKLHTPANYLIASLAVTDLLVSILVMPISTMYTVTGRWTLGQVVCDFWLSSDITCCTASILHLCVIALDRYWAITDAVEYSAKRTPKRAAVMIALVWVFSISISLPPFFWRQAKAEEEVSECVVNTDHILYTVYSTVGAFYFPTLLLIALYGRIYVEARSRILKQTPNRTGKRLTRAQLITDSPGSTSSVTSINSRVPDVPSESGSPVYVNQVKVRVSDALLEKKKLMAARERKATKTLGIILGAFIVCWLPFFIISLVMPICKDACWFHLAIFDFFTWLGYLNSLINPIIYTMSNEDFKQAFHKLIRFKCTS

inhibition [1]: -0.88%
inhibition [2]: -5.48%
inhibition [3]: -3.28%
inhibition [4]: 18.9%
inhibition [5]: 9.52%
inhibition [6]: 54.6%
inhibition [7]: 18.3%
inhibition [8]: -6.93%
inhibition [9]: 12.5%
inhibition [10]: 0.59%
Structure (SMILES): Cc1noc(C)c1-c1cnc2cc(C(=O)NCCC[n+]3ccc(N(C)C)cc3)ccn12

Structure (SMILES): CNc1cc[n+](CCNC(=O)c2ccn3c(-c4c(C)noc4C)cnc3c2)cc1
inhibition [11]: 9.4%
inhibition [12]: 3%
inhibition [13]: -6.3%
inhibition at 60 min, 10 µM [14]: -13.8% (not active)
inhibition at 60 min, 10 µM [15]: 6% (not active)
inhibition [16]: -0.5%
IC50 [17]: > 10 µM (not active)
IC50 [18]: > 10 µM (not active)
inhibition [1]: 9.81%
inhibition [2]: -3.48%
inhibition [4]: 6.53%
inhibition [5]: 5.19%
inhibition [7]: 41.3%
inhibition [9]: -6.15%
inhibition [10]: 1.62%
inhibition [19]: 1.2%
inhibition [20]: 1.1%
inhibition [21]: 0.5%
inhibition [22]: 1.6%
inhibition [23]: -4.1%
inhibition [24]: 0%
inhibition [25]: 0.4%
inhibition [26]: 2.7%
inhibition [27]: -1.6%
inhibition [28]: 5%
inhibition [29]: 0.2%
inhibition [30]: 11.8%
